Reference: PMC4561856, “Atomic basis for therapeutic activation of neuronal potassium channels” (Nature Communications, 2015)
Numbering of substitutions follows the chain as printed. Like-named read-outs stand apart in the source and are kept apart here.

Experiments:
[1] = test system: KCNQ3*[Trp265TAG] rescued with F3-Trp; experiment: Two-electrode voltage clamp of F3-Trp-rescued KCNQ3*[Trp265TAG] channels (nonsense suppression); assay type: cell-based, human; settings: for drug potency relative to Trp-rescued channels: F3-Trp substitution at Trp265
Description: (§1) KCNQ2 (human) and KCNQ3 (human) channel cDNAs were propagated and manipulated using the pTLN vector (gifts of Dr M. Taglialatela and Dr T. Jentsch). Introduction of point mutations was accomplished using PCR to combine two fragments each of which contained the mutation in an overlapping region of the sequence (‘two-step’ PCR method). To accomplish this, we used standard PCR approaches to amplify a 5′ fragment and a 3′ fragment (using a ‘flanking primer’ paired with a mutagenic primer). These fragments were then mixed along with the ‘flanking primer’ pair for a second round of PCR to combine the overlapping fragments. The resulting fragment was then subcloned into the appropriate parent vector using EcoRI and NotI restriction enzymes, and the sequence was verified by Sanger sequencing approaches (Genewiz). Sequences for the flanking primers and the ‘forward’ mutagenic primers are provided in Supplementary Table 1 for all mutations that were generated (‘reverse’ mutagenic primers are simply the reverse complement). In all experiments involving homomeric expression of KCNQ3 channels (including in vivo nonsense suppression experiments), the Ala315Thr mutation was introduced to enable efficient trafficking of homomeric KCNQ3. […] The plasmid encoding CivSP was kindly provided by Dr Y. Okamura. Complementary RNA was transcribed from the cDNA using the mMessage mMachine Kit (Ambion). Stage V–VI Xenopus laevis oocytes were prepared as previously described and were injected with cRNA alone or cRNA plus synthetic tRNA (for nonsense suppression, described below). Oocyte preparation was carried out using a protocol approved by the University of British Columbia Animal Care Committee, in accordance with the Canadian Council for Animal Care guidelines. We used female Xenopus laevis frogs 100 g or greater in size. After injection, oocytes were incubated for 12–48 h at 18 °C before recording.
Fluorinated Trp derivatives (5-F1-Trp; 7-F1-Trp; 5,7-F2-Trp (F2-Trp) and 5,6,7-F3-Trp (F3-Trp) were purchased from Asis Chem (Watertown, MA) and Sigma-Aldrich (St Louis, MO). The ‘Ind’ Trp variant was synthesized in-house as described previously. Incorporation of unnatural amino acids into ion channel proteins was carried out as described extensively in prior publications. Briefly, unnatural amino acids (aa) were protected with nitroveratryloxycarbonyl and were activated as the cyanomethyl ester, which were then coupled to the dinucleotide pdCpA (GE Healthcare/Dharmacon, Lafayette, CO). This aminoacyl dinucleotide was subsequently ligated to a modified (G73) Tetrahymena thermophile tRNA. […]
(§2) Voltage-clamped potassium currents were recorded in standard Ringers solution (in mM): 116 NaCl, 2 KCl, 1 MgCl2, 0.5 CaCl2, 5 HEPES (pH 7.4) using an OC-725C voltage clamp (Warner, Hamden, CT). […]

KCNQ3*[Trp265Ind] = experiment: Two-electrode voltage clamp of Ind-rescued KCNQ3*[Trp265TAG] channels (nonsense suppression); assay type: cell-based, human; settings: Ind at position 265; up to 100 μM retigabine
Description: (§3) KCNQ2 (human) and KCNQ3 (human) channel cDNAs were propagated and manipulated using the pTLN vector (gifts of Dr M. Taglialatela and Dr T. Jentsch). Introduction of point mutations was accomplished using PCR to combine two fragments each of which contained the mutation in an overlapping region of the sequence (‘two-step’ PCR method). To accomplish this, we used standard PCR approaches to amplify a 5′ fragment and a 3′ fragment (using a ‘flanking primer’ paired with a mutagenic primer). These fragments were then mixed along with the ‘flanking primer’ pair for a second round of PCR to combine the overlapping fragments. The resulting fragment was then subcloned into the appropriate parent vector using EcoRI and NotI restriction enzymes, and the sequence was verified by Sanger sequencing approaches (Genewiz). Sequences for the flanking primers and the ‘forward’ mutagenic primers are provided in Supplementary Table 1 for all mutations that were generated (‘reverse’ mutagenic primers are simply the reverse complement). […]
as §2

KCNQ1 = KCNQ1 lacks the S5 Trp; cited from earlier work
KCNQ2 = KCNQ2 (Homo sapiens, UniProt O43526); experiment: Two-electrode voltage clamp of homomeric KCNQ2 channels in Xenopus oocytes; assay type: cell-based; settings: 100 μM retigabine (Fig. 1)
Sequence of KCNQ2 (O43526 whole entry): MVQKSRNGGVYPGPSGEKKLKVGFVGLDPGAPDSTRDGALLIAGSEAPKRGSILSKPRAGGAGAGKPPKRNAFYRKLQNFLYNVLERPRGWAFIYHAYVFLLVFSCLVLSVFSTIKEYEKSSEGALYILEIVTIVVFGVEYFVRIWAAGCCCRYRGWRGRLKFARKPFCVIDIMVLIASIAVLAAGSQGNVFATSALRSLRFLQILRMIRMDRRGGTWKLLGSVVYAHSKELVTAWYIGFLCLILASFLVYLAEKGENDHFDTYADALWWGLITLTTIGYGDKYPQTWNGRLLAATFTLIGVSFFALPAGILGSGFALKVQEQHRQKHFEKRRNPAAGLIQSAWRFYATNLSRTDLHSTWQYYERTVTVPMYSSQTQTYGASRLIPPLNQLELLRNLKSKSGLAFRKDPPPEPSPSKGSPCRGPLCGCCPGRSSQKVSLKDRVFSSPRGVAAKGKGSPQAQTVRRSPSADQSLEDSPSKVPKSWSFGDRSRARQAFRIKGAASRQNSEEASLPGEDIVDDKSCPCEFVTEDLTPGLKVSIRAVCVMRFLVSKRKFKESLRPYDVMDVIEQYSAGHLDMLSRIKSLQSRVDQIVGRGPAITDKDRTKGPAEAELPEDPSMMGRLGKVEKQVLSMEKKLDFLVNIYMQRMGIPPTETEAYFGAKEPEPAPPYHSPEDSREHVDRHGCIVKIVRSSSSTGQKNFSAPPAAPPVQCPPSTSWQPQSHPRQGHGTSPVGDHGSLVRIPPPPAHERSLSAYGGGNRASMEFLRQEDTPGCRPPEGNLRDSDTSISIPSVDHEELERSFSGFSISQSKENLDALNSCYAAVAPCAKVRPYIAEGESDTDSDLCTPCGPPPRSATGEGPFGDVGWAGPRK
Description: as §3, §2

[2] = target: T1, KCNQ3* (KCNQ3[Ala315Thr]) (Homo sapiens, UniProt O43525, A315T); experiment: Two-electrode voltage clamp of homomeric KCNQ3* channels in Xenopus oocytes; assay type: cell-based
T1 sequence (O43525 1-872 A315T): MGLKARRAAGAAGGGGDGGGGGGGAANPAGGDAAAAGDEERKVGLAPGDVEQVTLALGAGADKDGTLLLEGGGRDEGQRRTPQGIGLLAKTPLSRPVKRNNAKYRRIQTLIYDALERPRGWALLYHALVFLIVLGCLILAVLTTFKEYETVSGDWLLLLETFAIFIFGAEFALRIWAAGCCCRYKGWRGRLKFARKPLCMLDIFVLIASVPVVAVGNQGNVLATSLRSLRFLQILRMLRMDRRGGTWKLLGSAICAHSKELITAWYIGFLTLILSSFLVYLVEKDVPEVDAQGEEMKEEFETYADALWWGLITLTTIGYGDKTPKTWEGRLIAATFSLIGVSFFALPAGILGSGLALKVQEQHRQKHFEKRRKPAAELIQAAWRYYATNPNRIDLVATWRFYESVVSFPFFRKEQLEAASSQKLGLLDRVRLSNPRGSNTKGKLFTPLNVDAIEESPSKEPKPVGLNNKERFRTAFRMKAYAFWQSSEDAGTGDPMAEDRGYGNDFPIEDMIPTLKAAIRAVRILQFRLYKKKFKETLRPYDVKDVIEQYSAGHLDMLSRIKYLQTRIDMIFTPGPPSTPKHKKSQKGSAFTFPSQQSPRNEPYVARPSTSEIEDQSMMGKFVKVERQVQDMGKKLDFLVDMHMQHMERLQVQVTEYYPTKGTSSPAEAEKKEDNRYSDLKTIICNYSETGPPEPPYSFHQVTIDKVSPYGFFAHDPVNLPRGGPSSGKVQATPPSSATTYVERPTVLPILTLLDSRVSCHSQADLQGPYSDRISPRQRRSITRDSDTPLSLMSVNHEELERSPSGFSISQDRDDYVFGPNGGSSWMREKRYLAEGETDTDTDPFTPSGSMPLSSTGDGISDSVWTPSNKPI
Description: as §1
Voltage-clamped potassium currents were recorded in standard Ringers solution (in mM): 116 NaCl, 2 KCl, 1 MgCl2, 0.5 CaCl2, 5 HEPES (pH 7.4) using an OC-725C voltage clamp (Warner, Hamden, CT). Glass microelectrodes were backfilled with 3 M KCl and had resistances of 0.1–1 MΩ. Data were filtered at 5 kHz and digitized at 10 kHz using a Digidata 1440A (Molecular Devices) controlled by the pClamp 10 software (Molecular Devices). Drugs were purchased from Toronto Research Chemicals (retigabine) or Tocris (ML-213, flupirtine, ICA-069673, ICA-110381), stored as 100 mM stocks in dimethylsulphoxide and diluted to working concentrations each experimental day.

[3] = test system: KCNQ3* mutants at Thr271, Leu272, Leu314 and Leu338; experiment: Two-electrode voltage clamp of KCNQ3* mutants at Thr271, Leu272, Leu314, Leu338; assay type: cell-based, human; settings: functional mutants, up to 300 μM retigabine
Description: as §3, §2

KCNQ3*[Asn220Cys] = target: T2, KCNQ3*[Asn220Cys] (Homo sapiens, UniProt O43525, A315T/N220C); experiment: Two-electrode voltage clamp of KCNQ3*[Asn220Cys] channels in Xenopus oocytes; assay type: cell-based; settings: 1 μM retigabine, Asn220Cys mutant
T2 sequence (O43525 1-872 N220C/A315T): T1 sequence (O43525 1-872 A315T) with N220C
Description: as §3, §2

[4] = target: T3, KCNQ3*[Trp265TAG] rescued with Trp (Homo sapiens, UniProt O43525, A315T); experiment: Two-electrode voltage clamp of Trp-rescued KCNQ3*[Trp265TAG] channels (nonsense suppression); assay type: cell-based; settings: 1 μM retigabine
T3 construct: expressed in transfected cells; host or cells: Xenopus laevis oocytes co-injected with KCNQ3*[Trp265TAG] cRNA and Trp-acylated suppressor tRNA
T3 sequence (O43525 1-872 A315T): T1 sequence (O43525 1-872 A315T)
Description: as §3, §2

KCNQ2/3 heteromers = target: T4, KCNQ2/3 heteromers (Homo sapiens, UniProt O43525+O43526); experiment: Two-electrode voltage clamp of heteromeric KCNQ2/3 channels in Xenopus oocytes; assay type: cell-based; settings: 1:1 injected mRNA
T4 construct: expressed in transfected cells; host or cells: Xenopus laevis oocytes co-injected with KCNQ2 and KCNQ3 mRNA (1:1)
T4 sequence (O43526 whole entry): as the sequence (O43526 whole entry) above
T4 sequence (O43525 whole entry): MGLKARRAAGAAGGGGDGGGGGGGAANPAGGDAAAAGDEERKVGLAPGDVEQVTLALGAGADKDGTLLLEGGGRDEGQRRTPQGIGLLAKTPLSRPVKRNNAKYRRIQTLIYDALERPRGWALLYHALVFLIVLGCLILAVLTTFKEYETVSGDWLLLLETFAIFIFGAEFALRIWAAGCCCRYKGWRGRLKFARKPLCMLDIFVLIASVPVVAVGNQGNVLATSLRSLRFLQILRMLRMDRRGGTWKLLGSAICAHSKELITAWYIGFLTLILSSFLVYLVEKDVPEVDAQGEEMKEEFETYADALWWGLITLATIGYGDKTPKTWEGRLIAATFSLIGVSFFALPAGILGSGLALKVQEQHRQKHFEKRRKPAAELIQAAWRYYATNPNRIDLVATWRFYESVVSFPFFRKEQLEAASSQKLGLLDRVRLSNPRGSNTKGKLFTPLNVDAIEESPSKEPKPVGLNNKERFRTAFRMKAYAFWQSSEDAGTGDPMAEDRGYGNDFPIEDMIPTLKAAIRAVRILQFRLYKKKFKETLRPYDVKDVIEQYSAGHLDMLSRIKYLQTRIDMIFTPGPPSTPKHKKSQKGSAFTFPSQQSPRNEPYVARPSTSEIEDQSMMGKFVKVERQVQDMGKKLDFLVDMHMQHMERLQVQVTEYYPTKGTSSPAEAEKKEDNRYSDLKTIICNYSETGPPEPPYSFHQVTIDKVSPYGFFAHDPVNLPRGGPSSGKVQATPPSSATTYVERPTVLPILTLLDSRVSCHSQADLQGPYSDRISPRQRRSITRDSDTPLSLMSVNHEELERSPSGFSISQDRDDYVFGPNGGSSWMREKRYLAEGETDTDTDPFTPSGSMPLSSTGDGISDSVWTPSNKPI
Description: as §3, §2

O=C(Nc1ccc(Cl)nc1)c1ccc(Cl)cc1 [ICA-110381]
drug potency relative to Trp-rescued channels [1]: not as pronounced | activation relative to Trp channels ([1]; F3-Trp-substituted channels): considerably more activation

CCOC(=O)Nc1ccc(NCc2ccc(F)cc2)cc1N [retigabine]
shift in the voltage dependence of activation ([1]; 1 μM retigabine, F3-Trp at Trp265): much larger response | activation of channels (gating shift, activation kinetics) (KCNQ3*[Trp265Ind]): entirely abolishes retigabine activation | hyperpolarizing shift of V1/2 of activation (KCNQ1): absent | hyperpolarizing shift of the V1/2 of activation (KCNQ2): 40–60 mV | EC50 [2]: 11.6 ± 0.4 µM | increase in peak current ([2]; KCNQ3* channels, rarely greater than): ≤ 15% | hyperpolarizing shift of the V1/2 of activation ([2]; homomeric KCNQ3*, Xenopus oocytes, 100 μM retigabine (Fig. 1)): 40–60 mV | stabilization of channel opening, ΔG=Δ(zFV1/2) ([2]; saturating retigabine, calculated from shift of conductance–voltage relationship): ~6 kcal/mol | retigabine-mediated gating shift [3]: retained a large retigabine-mediated gating shift | gating shift / sensitization to retigabine (KCNQ3*[Asn220Cys]): unable to generate a marked gating shift | shift in the voltage dependence of activation [4]: very little shift | retigabine-mediated gating shift (KCNQ2/3 heteromers): ~−40 mV

Cc1cc(C)c(NC(=O)C2CC3CCC2C3)c(C)c1 (stereo not shown) [ML-213]
EC50 ([2]; KCNQ3* channels, n=5, ± s.e., read-out: EC50 for shift of activation V1/2): 3.6 ± 0.2 µM

O=C(Nc1cnc(Cl)nc1)c1ccc(F)c(F)c1 [ICA-069673]
drug potency relative to Trp-rescued channels [1]: not as pronounced
